Format in all cases: biochemical
One assay concerns the target Pim3 kinase (Homo sapiens, UniProt Q86V86). The assay is described as follows: Pim3 ATP depletion assay.
In a further assay the target is Pim2 kinase (Homo sapiens, UniProt Q9P1W9). Description: Pim2 ATP depletion assay.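 Further: Luciferase-based luminescent readout of ATP remaining after PIM2 phosphorylates a BAD peptide, final 5 nM enzyme, 4 µM ATP, 10 µM peptide, 2.5% DMSO, run to roughly half ATP consumption.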
In a further assay the target is Pim1 kinase (Homo sapiens, UniProt P11309). The assay is described as follows: Pim1 ATP depletion assay.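 Further: Luciferase-luciferin luminescence readout of residual ATP after PIM1 transfers phosphate to a peptide substrate, 40 µM ATP added, reaction run to roughly half ATP consumption.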 The settings on record: Pim1 ATP depletion assay.
Pim1 kinase, sequence (P11309 whole entry): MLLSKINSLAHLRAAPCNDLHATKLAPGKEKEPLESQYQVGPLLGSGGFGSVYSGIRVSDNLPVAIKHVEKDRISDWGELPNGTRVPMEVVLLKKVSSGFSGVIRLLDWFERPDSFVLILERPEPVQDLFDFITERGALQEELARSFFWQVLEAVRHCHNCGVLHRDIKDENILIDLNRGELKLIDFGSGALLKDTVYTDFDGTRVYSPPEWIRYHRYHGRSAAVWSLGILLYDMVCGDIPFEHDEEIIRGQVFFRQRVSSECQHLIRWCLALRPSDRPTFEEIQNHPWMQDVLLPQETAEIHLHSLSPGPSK

Read-outs that look alike come from different tables or passages of the source.

Pim2 kinase, sequence (Q9P1W9 whole entry): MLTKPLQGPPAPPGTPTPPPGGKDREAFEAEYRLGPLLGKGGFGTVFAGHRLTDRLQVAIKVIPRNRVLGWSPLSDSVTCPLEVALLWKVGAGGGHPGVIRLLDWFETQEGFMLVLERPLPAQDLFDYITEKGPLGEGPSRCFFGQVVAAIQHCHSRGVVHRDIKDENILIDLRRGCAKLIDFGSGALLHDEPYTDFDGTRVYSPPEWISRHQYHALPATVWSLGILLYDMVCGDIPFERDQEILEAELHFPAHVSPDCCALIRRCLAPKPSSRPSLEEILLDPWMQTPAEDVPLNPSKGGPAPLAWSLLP

For orientation: IC50 means the midpoint of a concentration-inhibition curve. For `Nc1cnc(-c2c(F)cccc2F)nc1C(=O)Nc1cnccc1N1CC[C@@H](F)[C@H](N)C1` (stereo in doubt) [Example 256, 5-Amino-2-(2,6-difluoro-phenyl)-pyrimidine-4-carboxylic acid (3-amino-4-fluoro-3,4,5,6-tetrahydro-2H-[1,4′]bipyridinyl-3′-yl)-amide], the IC50 at Pim3 kinase (read-out: IC50 (μM) PIM3), on Pim2 kinase (read-out: IC50 (μM) PIM2) and at Pim1 kinase (read-out: IC50 (μM) PIM1) was under 1 µM each time.

As for `CC(C)NC(=O)c1ccc(F)c(-c2ccc(N)c(C(=O)Nc3cnccc3N3C[C@@H](N)C[C@H](OC(=O)c4ccccc4)C3)n2)c1` (stereo in doubt) [Example 294, Benzoic acid 5-amino-3′-{[3-amino-6-(2-fluoro-5-isopropylcarbamoyl-phenyl)-pyridine-2-carbonyl]-amino}-3,4,5,6-tetrahydro-2H-[1,4′]bi-pyridinyl-3-yl ester], the IC50 at Pim3 kinase (read-out: IC50 (μM) PIM3), on Pim2 kinase (read-out: IC50 (μM) PIM2) and on Pim1 kinase (read-out: IC50 (μM) PIM1) was under 1 µM in each case.

As for `Nc1ccc(C2CC3CCC2C3)nc1C(=O)Nc1cnccc1N1CCC[C@H](N)C1` (stereo in doubt) [Example 646, 3-Amino-6-bicyclo[2.2.1]hept-2-yl-pyridine-2-carboxylic acid (3-amino-3,4,5,6-tetrahydro-2H-[1,4′]bipyridinyl-3′-yl)-amide], the concentration for half-maximal inhibition (IC50) at Pim3 kinase (read-out: PIM3 IC50), on Pim2 kinase (read-out: PIM2 IC50) and on Pim1 kinase (read-out: PIM1 IC50) was under 1 µM each time.

As to `Nc1cnc(-c2ccccc2F)nc1C(=O)Nc1cnccc1N1CC[C@@H](O)[C@H](N)C1` (stereo in doubt) [Example 662, 5-Amino-2-(2-fluoro-phenyl)-pyrimidine-4-carboxylic acid (3-amino-4-hydroxy-3,4,5,6-tetrahydro-2H-[1,4′]bi-pyridinyl-3′-yl)-amide], the IC50 on Pim3 kinase (read-out: PIM3 IC50), on Pim2 kinase (read-out: PIM2 IC50) and at Pim1 kinase (read-out: PIM1 IC50) was under 1 µM throughout.

With `Nc1cnc(-c2c(F)cccc2F)nc1C(=O)Nc1cnccc1N1CC[C@@H](O)[C@H](N)C1` (stereo in doubt) [Example 663, 5-Amino-2-(2,6-difluoro-phenyl)-pyrimidine-4-carboxylic acid (3-amino-4-hydroxy-3,4,5,6-tetrahydro-2H-[1,4′]bipyridinyl-3′-yl)-amide], the IC50 at Pim3 kinase (read-out: PIM3 IC50), on Pim2 kinase (read-out: PIM2 IC50) and at Pim1 kinase (read-out: PIM1 IC50) was under 1 µM throughout.

With `CC(C)Oc1ccc(F)c(-c2ccc(N)c(C(=O)Nc3cnccc3N3CC[C@@H](O)[C@H](N)C3)n2)c1F` (stereo in doubt) [Example 665, 3-Amino-6-(2,6-difluoro-3-isopropoxy-phenyl)-pyridine-2-carboxylic acid (3-amino-4-hydroxy-3,4,5,6-tetrahydro-2H-[1,4′]bipyridinyl-3′-yl)-amide], the half-inhibitory concentration (IC50) at Pim3 kinase (read-out: PIM3 IC50), at Pim2 kinase (read-out: PIM2 IC50) and at Pim1 kinase (read-out: PIM1 IC50) was under 1 µM each time.

On to `CC(C)Oc1ccc(F)c(-c2ccc(N)c(C(=O)Nc3cnccc3N3CC[C@@H](N)[C@H](O)C3)n2)c1F` (stereo in doubt) [Example 667, 3-Amino-6-(2,6-difluoro-3-isopropoxy-phenyl)-pyridine-2-carboxylic acid (4-amino-3-hydroxy-3,4,5,6-tetrahydro-2H-[1,4′]bipyridinyl-3′-yl)-amide], for which the 50% inhibitory concentration (IC50) on Pim3 kinase (read-out: PIM3 IC50), at Pim2 kinase (read-out: PIM2 IC50) and on Pim1 kinase (read-out: PIM1 IC50) was under 1 µM throughout.

Consider `CC1CC(N)CN(c2ccncc2NC(=O)c2ccc(F)c(-c3ccccc3F)n2)C1` (stereo not drawn) [Example 287, 5-Fluoro-6-(2-fluoro-phenyl)-pyridine-2-carboxylic acid (3-amino-5-methyl-3,4,5,6-tetra-hydro-2H-[1,4′]bipyridinyl-3′-yl)-amide], for which the half-inhibitory concentration (IC50) on Pim3 kinase (read-out: IC50 (μM) PIM3) was under 1 µM.

Regarding `Nc1ccc(C2CCCCC2)nc1C(=O)Nc1cnccc1N1CCC[C@H](N)C1` [Example 636, 3-Amino-6-cyclohexyl-pyridine-2-carboxylic acid (3-amino-3,4,5,6-tetrahydro-2H-[1,4′]bipyridinyl-3′-yl)-amide], the half-inhibitory concentration (IC50) on Pim3 kinase (read-out: PIM3 IC50) and at Pim1 kinase (read-out: PIM1 IC50) was under 1 µM each time.

Values taken from patent US20140249135A1, “PIM KINASE INHIBITORS AND METHODS OF THEIR USE” (NOVARTIS AG, priority 2007, published 2014).
